| melting point [°C] | SMILES |
| --- | --- |
| 139 | CC(C)(C)c1ccc(SCCCCCOc2ccc(C3=C(c4ccccc4)CCCc4cc(O)ccc43)cc2)cc1 [Example 54, 5-{4-[5-(4-tert-Butyl-phenylthio)-pentyloxy]-phenyl}-6-phenyl-8,9-dihydro-7H-benzocyclohepten-2-ol] |
| 162 | O=S(=O)(CCCCCOc1ccc(C2=C(c3ccccc3)CCCc3cc(O)ccc32)cc1)c1ccccc1 [Example 53, 6-phenyl-5-[4-(5-phenylsulfonyl-pentyloxy)-phenyl]-8,9-dihydro-7H-benzocyclohepten-2-ol] |

Reference: US7145015B2, “Benzocycloheptenes, process for their production, pharmaceutical preparations that contain that latter as well as their use for the production of pharmaceutical agents” (Schering AG, priority 1998, dated 2006)
